Test results reported in ChEMBL document CHEMBL5055681, “Optimized protocols for assessing libraries of poorly soluble sortase A inhibitors for antibacterial activity against medically-relevant bacteria, toxicity and enzyme inhibition” (Bioorg Med Chem, 2021).
In brackets after ≈: the same amount, converted by molar mass. Activity calls are given as the source filed them. The rule behind the calls is not given here.

Experiments:
[1] = Inhibition of Staphylococcus aureus sortase A using Abz-LPETGK(Dnp)-NH2 fluorescent peptide as a substrate assessed as substrate cleavage measured over 60 mins by FRET assay
Staphylococcus aureus [2] = test: Antimicrobial activity against Staphylococcus aureus ATCC 25923 assessed as bacterial growth inhibition measured after 24 hrs by resazurin dye based broth microdilution method; format: functional
Escherichia coli = test: Antimicrobial activity against Escherichia coli ATCC 25922 assessed as bacterial growth inhibition measured after 24 hrs by resazurin dye based broth microdilution method; format: functional
Staphylococcus aureus [3] = test: Antimicrobial activity against Staphylococcus aureus MRSA ATCC 43300 assessed as bacterial growth inhibition measured after 24 hrs by resazurin dye based broth microdilution method; format: functional
Staphylococcus aureus [4] = test: Antimicrobial activity against Staphylococcus aureus ATCC 25923 assessed as bacterial growth inhibition measured after 24 hrs by CLSI based agar dilution method; format: functional
[5] = Solubility of the compound in 5% DMSO in MHB assessed as precipitation at up to 3.9 ug/ml measured over 24 hrs; format: physicochemical; conditions: dose < 3.9 µg/ml
[6] = Ratio of MIC for antimicrobial activity against Staphylococcus aureus ATCC 25923 to IC50 for inhibition of Staphylococcus aureus sortase A using Abz-LPETGK(Dnp)-NH2 fluorescent peptide as substrate; format: toxicity
Pseudomonas aeruginosa = test: Antimicrobial activity against Pseudomonas aeruginosa ATCC 27853 assessed as bacterial growth inhibition measured after 24 hrs by resazurin dye based broth microdilution method; conditions: ATCC 27853, 24 h
HEK293 [7] = test: Cytotoxicity against HEK293 cells assessed as reduction in cell viability at 31.3 to 1000 ug/ml measured after 24 hrs by resazurin dye based cell viability assay; conditions: human, hek293, 24 h, dose 31.3-1000 µg/ml
Staphylococcus aureus [8] = test: Antimicrobial activity against Staphylococcus aureus ATCC 25923 assessed as zone of inhibition at 125 ug/ml measured after 24 hrs by disc diffusion method; format: functional, organism-based; conditions: dose 125.0 µg/ml
Staphylococcus aureus [9] = test: Antimicrobial activity against Staphylococcus aureus ATCC 25923 assessed as zone of inhibition at 250 ug/ml measured after 24 hrs by disc diffusion method; format: functional, organism-based; conditions: dose 250.0 µg/ml
Staphylococcus aureus [10] = test: Antimicrobial activity against Staphylococcus aureus ATCC 25923 assessed as zone of inhibition at 500 ug/ml measured after 24 hrs by disc diffusion method; format: functional
[11] = Solubility of the compound in 5% DMSO in MHB assessed as precipitation at up to 2.0 ug/ml measured over 24 hrs; format: physicochemical; conditions: dose < 2 µg/ml
HEK293 [12] = test: Cytotoxicity against HEK293 cells assessed as reduction in cell viability at 62.5 to 2000 ug/ml measured after 24 hrs by resazurin dye based cell viability assay; conditions: human, hek293, 24 h, dose 62.5-2000 µg/ml
[13] = Solubility of the compound in 5% DMSO in MHB assessed as precipitation at up to 500 ug/ml measured over 24 hrs; format: physicochemical; conditions: dose < 500 µg/ml

Row | SMILES | IC50 [1] [µg/mL] | MIC (Staphylococcus aureus [2]) [µg/mL] | MIC (Escherichia coli) [µg/mL] | MIC (Staphylococcus aureus [3]) [µg/mL] | MIC (Staphylococcus aureus [4]) [µg/mL] | solubility [5] | Ratio [6] | MIC (Pseudomonas aeruginosa) [µg/mL] | Activity (HEK293 [7]) | Activity (Staphylococcus aureus [8]) | Activity (Staphylococcus aureus [9]) | zone of inhibition at 500 µg/mL (Staphylococcus aureus [10]; read-out: DIZ) [mm] | solubility [11] | Activity (HEK293 [12]) | Activity (Staphylococcus aureus [10]; dose 500.0 µg/ml) | solubility [13]
1 | COc1ccc2cc3[n+](cc2c1OC)CCc1cc2c(cc1-3)OCO2 [BERBERINE] | 6.9 | 125 | 250 | 125 | 125 | Soluble | 18.1 | 500 | Non-Toxic | Active |  |  |  |  |  | 
2 | O=C(/C=C/c1ccccc1)c1ccccc1 [CHALCONE] | 25.2 (≈ 121 µM) | 125 (≈ 600 µM) | 500 (≈ 2400 µM) | 125 (≈ 600 µM) | 125 (≈ 600 µM) |  | 5 | 500 (≈ 2400 µM) | Toxic |  | Active | 16 | Soluble |  |  | 
3 | COc1cc(/C=C/C(=O)CC(=O)/C=C/c2ccc(O)c(OC)c2)ccc1O [CURCUMIN] | 42.2 (≈ 115 µM) | 250 (≈ 679 µM) | 250 (≈ 679 µM) | 250 (≈ 679 µM) | 250 (≈ 679 µM) |  | 7.1 | 250 (≈ 679 µM) |  |  |  |  |  | Toxic | Active | Insoluble
4 | O=c1c(O)c(-c2ccc(O)c(O)c2)oc2cc(O)cc(O)c12 [QUERCETIN] | 35.1 (≈ 116 µM) | 250 (≈ 827 µM) | 250 (≈ 827 µM) | 250 (≈ 827 µM) | 250 (≈ 827 µM) |  | 6 | 250 (≈ 827 µM) |  |  | Active |  |  | Non-Toxic |  | Insoluble
